The values that follow are results of earlier work, collected in patent US20020066702A1, “Antibacterial and antibiofilm bonded permanent magnets” (priority 2000, published 2002).

Series [1] has as its system human fibroblast. The note with it: 24 hours after a 15 minute exposure to 1% povidone-iodine, 3% hydrogen peroxide or 0.5% sodium hypochlorite.
Series [2] relates to full thickness dermal wounds on the backs of rats. The note with it: eight days after initial irrigation with 1% povidone-iodine or 0.5% sodium hypochlorite.

In the case of `OO` [hydrogen peroxide], the fibroblast survival result in series [1] is on record as “no fibroblasts survived”.
Take `OCl` [sodium hypochlorite]: the fibroblast survival result in series [1] is recorded as “no fibroblasts survived”. Moreover, the re-epithelialization entry in series [2] was “substantially and statistically significantly inhibited”.
For “polyvinylpyrrolidone-iodine complex [povidone-iodine]”, the fibroblast survival entry in series [1] is reported as “no fibroblasts survived”. For the same compound, in series [2], the re-epithelialization entry is “substantially and statistically significantly inhibited”.
